# Source: PMC10877564, “Activity of Gut-Derived Nisin-like Lantibiotics against Human Gut Pathogens and Commensals” (ACS Chemical Biology, 2024)
# Positions of bridges follow the written chain, without caps; N, C: chain ends. Non-standard residues stand in square brackets, D forms with d. No end group written: not given here. Abu = CC[C@H](N)C(=O)O; Dhb = C/C=C(\N)C(=O)O; Dha = C=C(N)C(=O)O
# Legend:
# Assay in all cases: MIC assay, anaerobic broth dilution
# B. obeum MSK.18.40 = type: cell-based, Blautia obeum; conditions: BHIS, 37 °C, 48 h, 3-fold serial dilution
# Source text: Antibiotic treatment may result in collateral damage to commensal bacteria in the human microbiome, leading to dysbiosis and susceptibility to various diseases.[44] How lantibiotics impact Gram-positive commensals from the human gut has remained unclear. Therefore, we performed antimicrobial activity tests of these lantibiotics against selected Gram-positive human gut commensals, most of which belong to the Lachnospiraceae family, one of the most abundant bacterial families in the human gut.[27] In general, human gut commensals were more susceptible to the set of investigated lantibiotics compared to pathogens (Figure 3). […]
# Isolation of human gut commensal bacteria
# Isolation and growth of commensal bacteria was done as previously reported.5 Briefly, fresh donor fecal samples were transferred into an anaerobic chamber (Coy Labs) within 1 h of collection. The anaerobic chamber was maintained using a gas mix consisting of 5% hydrogen, 5% carbon dioxide and 90% nitrogen, and hydrogen was maintained at ~3.0% using an anaerobic gas infuser. […]
# (§1) All MIC assays were performed under anaerobic condition. […] Lantibiotics were dissolved in DPBS, and concentrations were determined by BCA assay (Pierce) according to the manufacturer’s protocol. […]
# S. aureus USA300 (MRSA) = type: cell-based, Staphylococcus aureus; conditions: BHIS, 37 °C, 48 h, 3-fold serial dilution
# Source text: (§2) Next, we set out to test the antimicrobial activities of these purified lantibiotics against a panel of Gram-positive bacteria that are representatives of some of the most prevalent human pathogens: VRE, Methicillin-resistant S. aureus USA300 (MRSA), Methicillin-resistant Staphylococcus epidermidis SK135 (MRSE), Listeria monocytogenes 10403S, and Clostridioides difficile VPI10463. We examined the growth of bacteria in a 96-well plate under a concentration gradient of lantibiotics under anaerobic conditions (Figure S2B).
# (§3) Elution Buffer (4 M guanidine hydrochloride, 20 mM Tris HCl, pH 7.5 at 25 °C, 100 mM NaCl, 1 M imidazole). Peptides eluted from the Ni resin were concentrated and desalted using 3 kDa Amicon filters (Millipore). For leader peptide removal, the peptide (1:20 trypsin to peptide) was incubated with the trypsin protease in 50 mM Tris-HCl, pH 8 overnight at 37 °C. Lastly, the core peptides were further purified with HPLC using an Agilent 1200 instrument (Agilent) as specified […]
# (§4) in general methods. […]
# For broth cultures, isolates were grown in pre-reduced BHI supplemented with 5 g/L yeast extract (Difco, BD) and 0.1% L-cysteine under anaerobic condition. […]
# as §1
# [1] = system: Coprococcus eutactus MSK.18.32; type: cell-based; conditions: Coprococcus eutactus MSK.18.32; anaerobic, BHIS, 37 °C, 48 h, 3-fold serial dilution
# Source text: (§5) Antibiotic treatment may result in collateral damage to commensal bacteria in the human microbiome, leading to dysbiosis and susceptibility to various diseases.[44] How lantibiotics impact Gram-positive commensals from the human gut has remained unclear. Therefore, we performed antimicrobial activity tests of these lantibiotics against selected Gram-positive human gut commensals, most of which belong to the Lachnospiraceae family, one of the most abundant bacterial families in the human gut.[27] In general, human gut commensals were more susceptible to the set of investigated lantibiotics compared to pathogens (Figure 3).
# as §3, with “specified in general methods. About 1.5 mg recombinant peptide was obtained after HPLC purification per” for “specified”
# as §1
# [2] = system: S. epidermidis SK135 (MRSE); type: cell-based, Staphylococcus epidermidis; conditions: BHIS, 37 °C, 48 h, 3-fold serial dilution
# Source text: as §2, with “S2B). […]” for “S2B).”
# For broth cultures, isolates were grown in pre-reduced BHI supplemented with 5 g/L yeast extract (Difco, BD) and 0.1% L-cysteine under anaerobic condition.
# Minimal Inhibition Concentration (MIC) assay
# All MIC assays were performed under anaerobic condition. Stationary bacterial culture in BHIS (BHI supplemented with 5 g/L yeast extract and 0.1% L-cysteine) were inoculated 1:100 to wells containing 200 µL BHIS in U-bottom 96-well plates. Lantibiotics were dissolved in DPBS, and concentrations were determined by BCA assay (Pierce) according to the manufacturer’s protocol.
# Lantibiotic stock solutions were added to wells to reach desired final concentration, with 3-fold serial dilution across rows to create concentration gradients. Bacteria-inoculated wells without lantibiotics served as control. […]
# [3] = system: D. formicigenerans MSK.17.61; type: cell-based, Dorea formicigenerans; conditions: BHIS, 37 °C, 48 h, 3-fold serial dilution
# Source text: as §5
# as §3, with “specified in general methods. About 1.5 mg recombinant peptide was obtained after HPLC purification per” for “specified”
# as §1
# F. fissicatena MSK.9.3 = type: cell-based, Faecalicatena fissicatena; conditions: BHIS, 37 °C, 48 h, 3-fold serial dilution
# Source text: as §5, §3, §4
# Isolation of human gut commensal bacteria […]
# as §1
substance,measurement,setting,value
"nisin A (I[Dhb]AI[Dha]LC[Abu]PGCK[Abu]GALMGCNMK[Abu]A[Abu]CHCSIHV[Dha]K; thioether 8-11, 13-19, 23-26, 25-28, 3-7; UniProt P13068 24-57, looked up) [prototypical class I lantibiotic produced by L. lactis, food preservative; commercial nisin A]",nisin A MIC,B. obeum MSK.18.40,0.0110 µM
same,nisin A MIC,S. aureus USA300 (MRSA),2.67 µM
same,nisin A MIC,[1],0.0110 µM
same,nisin A MIC,[2],2.67 µM
same,nisin A MIC,[3],0.0110 µM
same,nisin A MIC,F. fissicatena MSK.9.3,0.0329 µM
